pKi: −log10 of the molar value.
Key:
hα2A = target: T1, hα2A (Homo sapiens, UniProt P08913); experiment: Radioligand binding, hα2A receptor ([3H]rauwolscine)
T1 construct: expressed in transfected cells; host or cells: Chinese hamster lung cells (membrane preparation)
T1 sequence (P08913 1-465): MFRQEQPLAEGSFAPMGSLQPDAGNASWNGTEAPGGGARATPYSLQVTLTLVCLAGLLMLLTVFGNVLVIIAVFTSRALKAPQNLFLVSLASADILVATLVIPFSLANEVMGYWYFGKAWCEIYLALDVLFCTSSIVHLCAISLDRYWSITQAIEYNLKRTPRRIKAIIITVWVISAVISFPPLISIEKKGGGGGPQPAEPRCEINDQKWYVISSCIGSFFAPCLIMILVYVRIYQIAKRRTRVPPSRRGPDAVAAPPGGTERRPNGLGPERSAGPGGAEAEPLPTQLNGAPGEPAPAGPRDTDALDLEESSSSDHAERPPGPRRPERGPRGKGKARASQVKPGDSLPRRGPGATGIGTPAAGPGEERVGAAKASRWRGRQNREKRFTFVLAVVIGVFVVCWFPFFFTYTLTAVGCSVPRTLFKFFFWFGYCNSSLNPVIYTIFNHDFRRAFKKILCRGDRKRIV
Protocol: (§1) Binding affinities at human monoamine receptors and transporters were assessed as previously reported. A detailed description of the methodology is provided in the Supplementary information.
(§2) Data analysis was performed with Prism software (version 10.1.2, GraphPad Software, Boston, MA, USA). The IC50 values from the radioligand binding assays were determined by nonlinear regression, using three independent concentration-response curves fitted to a one-site model. The Cheng-Prusoff equation was used to calculate Kᵢ values for the competing ligands. EC50 values were determined by applying nonlinear regression to concentration-response curves. Bias factors (β) were calculated based on the relative intrinsic activity approach. More detailed information can be found in the Supplementary information. Mean values for total number of HTR, change in body temperature from pre to post session (Δ°C), and total distance traveled (cm) for each drug dose were compared (p < 0.05) via Welch’s ANOVA with Dunnett’s T3 post test, comparing all doses to respective vehicle controls (0 mg/kg). Welch’s ANOVA with Dunnett’s T3 post test was also used to compare drug concentrations, but the data were compared to DOM in this case. Dose–response relationships for HTR and locomotor activities were plotted using bell-shaped curve fits, while temperature change data were plotted using four-parameter non-linear regression curve fits. The ascending phase of the HTR curve for each drug was used to determine ED50 potency values from four parameter non-linear regression fits. For combined DOM and DOAM administration, the plasma, brain tissue, and brain dialysate drug concentrations were compared using paired t-tests (p < 0.05). Ratios were compared using Holm-Sidak’s post hoc test following a repeated-measures one-way ANOVA (F (1.709, 6.835) = 70.80; p < 0.0001).
(§3) 3.1 Assessment of receptor and transporter binding affinities
(§4) Membrane preparations were prepared from cells transfected with the respective target. The membrane preparations were then incubated with selective radioligands at concentrations equal to the corresponding Kd and displacement of the ligand by the drugs was measured. The difference between total binding and nonspecific binding (determined in the presence of selective competitors) was defined as specific binding of the radioligand to the target receptor. The following transfected cell lines were used for the binding assays: HEK 293 cells (h5-HT1A, h5-HT2A, h5-HT2B, h5-HT2C, and hD2 receptors, hDAT, hNET, and hSERT), Chinese hamster ovary cells (hα 1A receptor), and Chinese hamster lung cells (hα 2A receptor).
(§5) 3.1.1 Membrane preparations for receptor and transporter binding
(§6) For producing membrane preparations, transfected cells were harvested with trypsin/EDTA, washed with ice-cold phosphate buffered saline, and then pelleted by centrifugation (210 × g for 5 min at 4 °C). The pellets were frozen and stored at -80 °C until use. Frozen pellets were resuspended in 20 m L (receptor binding) or 400 m L (transporter binding) buffer (20 mM HEPES -NaOH, 10 mM EDTA, pH 7.4), and homogenized at 1,100 × g for 20 s (receptor binding) or 560 × g for 15 s (transporter binding); the homogenates were then centrifuged at 48,000 × g for 30 min at 4 °C. For receptor binding assays, the supernatants were discarded and the pellets were resuspended in 20 mL buffer (20 mM HEPES-NaOH, 0.1 mM EDTA, pH 7.4) and homogenized at 1 ,100 × g for 20 s. Centrifugation and discarding of the supernatant were repeated once, and the final pellet was then resuspended in buffer and homogenized.
(§7) 3.1.2 Serotonin 5-HT1A and 5-HT2A receptor binding
Competitive binding at the h5-HT1A and h5-HT2A receptor was determined using 0.90 nM [ 3H]8-hydroxy-2-(di-n-propylamine)tetralin ([ 3H]8-OH-DPAT; h5-HT1A receptor agonist) and 0.40 nM [3H]ketanserin (h5-HT2 receptor antagonist) as radioligands. The density and affinity of [ 3H]8-OH-DPAT […]

hSERT = target: T2, hSERT (Homo sapiens, UniProt P31645); experiment: Radioligand binding, hSERT ([3H]citalopram)
T2 construct: expressed in transfected cells; host or cells: HEK 293 cells (membrane preparation)
Protocol: as §1
as §2, with “The” for “Data analysis was performed with Prism software (version 10.1.2, GraphPad Software, Boston, MA, USA). The”, “0.05).” for “0.05). Ratios were compared using Holm-Sidak’s post hoc test following a repeated-measures one-way ANOVA (F (1.709, 6.835) = 70.80; p < 0.0001).”
as §3, §4, §5, §6, §7
Competitive binding at the h5-HT1A and h5-HT2A receptor was determined using 0.90 nM [ 3H]8-hydroxy-2-(di-n-propylamine)tetralin ([ 3H]8-OH-DPAT; h5-HT1A receptor agonist) and 0.40 nM [3H]ketanserin (h5-HT2 receptor antagonist) as radioligands. […]
binding of the radioligands was defined as difference between total binding (binding buffer alone) and nonspecific binding determined in the presence of 10 μM pindolol (h5-HT1A receptor antagonist) or 10 μM spiperone (h 5-HT2A receptor antagonist).

[1] = hSERT Ki, mean (95% CI), HEK 293 membranes

T2 sequence (P31645 whole entry): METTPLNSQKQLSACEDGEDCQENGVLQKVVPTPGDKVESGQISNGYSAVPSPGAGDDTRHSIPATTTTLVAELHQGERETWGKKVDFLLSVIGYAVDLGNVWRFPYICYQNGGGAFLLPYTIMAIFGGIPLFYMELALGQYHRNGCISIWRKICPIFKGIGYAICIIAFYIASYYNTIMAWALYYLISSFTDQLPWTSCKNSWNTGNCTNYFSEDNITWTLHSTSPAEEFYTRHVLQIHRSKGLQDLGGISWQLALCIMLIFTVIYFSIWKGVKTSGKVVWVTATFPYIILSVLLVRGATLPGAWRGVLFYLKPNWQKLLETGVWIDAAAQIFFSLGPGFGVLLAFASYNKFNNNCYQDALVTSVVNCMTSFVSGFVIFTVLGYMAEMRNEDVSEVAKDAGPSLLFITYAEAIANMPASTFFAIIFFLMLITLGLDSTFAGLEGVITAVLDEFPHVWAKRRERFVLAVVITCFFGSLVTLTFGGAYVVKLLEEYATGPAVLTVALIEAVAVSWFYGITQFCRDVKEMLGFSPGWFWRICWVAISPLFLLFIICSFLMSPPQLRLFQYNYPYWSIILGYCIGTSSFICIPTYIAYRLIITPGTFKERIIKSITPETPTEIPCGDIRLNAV

COc1ccc(OC)c(CC(C)N)c1.Cl (stereo not shown) [2,5-DMA, 2,5-Dimethoxyamphetamine hydrochloride]
pKi (hα2A): 5.36 | pKi (hSERT; [1]): < 5.15

CCCCCc1cc(OC)c(CC(C)N)cc1OC (stereo not shown) [DOAM, 4-amyl-2,5-dimethoxyamphetamine]
pKi (hα2A): 5.64 | pKi (hSERT; Ki SERT, text value (range DAT and SERT 3.6–4.6)): 5.34 | pKi (hSERT; [1]): 5.33

CCCCc1cc(OC)c(CC(C)N)cc1OC (stereo not shown) [DOBU, 4-butyl-2,5-dimethoxyamphetamine]
pKi (hα2A): 5.77 | pKi (hSERT; [1]): < 5.15

CCc1cc(OC)c(CC(C)N)cc1OC (stereo not shown) [DOET, 4-ethyl-2,5-dimethoxyamphetamine]
pKi (hα2A): < 5.30 | pKi (hSERT; [1]): < 5.15

COc1cc(CC(C)N)c(OC)cc1C (stereo not shown) [DOM, 4-methyl-2,5-dimethoxyamphetamine]
pKi (hα2A): < 5.30 | pKi (hSERT; [1]): < 5.15

CCCc1cc(OC)c(CC(C)N)cc1OC.Cl (stereo not shown) [DOPR, 4-propyl-2,5-dimethoxyamphetamine hydrochloride]
pKi (hα2A): 6.29 | pKi (hSERT; [1]): < 5.15
